Assay results as given in patent publication US8211901B2, “Naphthamide derivatives as multi-target protein kinase inhibitors and histone deacetylase inhibitors” (Shenzhen Chipscreen Biosciences Ltd., priority 2009, dated 2012).

Columns and labels:
[1] = tested on: total HDAC enzyme (HeLa extract); assay: In vitro inhibition of total HDAC enzyme activity (HDAC Fluorimetric Assay/Drug Discovery Kit); type: biochemical
Description: Measurement of In Vitro Inhibition of Total HDAC Enzyme Activity:
The in vitro inhibition of total HDAC enzyme was determined by HDAC Fluorimetric Assay/Drug Discovery Kit (BIOMOL) according to manufacture's instruction. • 1. Add Assay buffer, diluted trichostatin A or test inhibitor to appropriate wells of the microtiter plate. Following table lists examples of various assay types and the additions required for each test.
• 2. Add diluted HeLa extract or other HDAC sample to all wells except those that are to be “No Enzyme Controls” (Blank). • 3. Allow diluted Fluor de Lys™ Substrate and the samples in the microtiter plate to equilibrate to assay temperature (25° C.). • 4. Initiate HDAC reactions by adding diluted substrate (25 μl) to each well and mixing thoroughly. • 5. Allow HDAC reactions to proceed for desired length of time and then stop them by addition of Fluor de Lys™ Developer (50 μl). Incubate plate at room temperature (25° C.) for 10-15 min. • 6. Read samples in a microtiter-plate reading fluorimeter capable of excitation at a wavelength in the range 350-380 nm and detection of emitted light in the range 440-460 nm. Measurement of In Vivo Inhibition of HDAC Subtype Activity: […]

[2] = tested on: HUVEC cells; assay: VEGF dependent cell proliferation (MTS); type: cell-based; conditions: Homo sapiens, VEGF 165 50 ng/ml, 72 hours, serum-free medium, read-out: GI50 nM (VEGF ligand-dependent cell proliferation)
Description: VEGF Dependent Cell Proliferation:
HUVEC cells were plated into 96-well plates at 6,000 per well and incubated with serum-free medium for 2 hours. Compounds and VEGF 165 (50 ng/ml) were added and incubated for 72 hours in serum-free medium. The effects on proliferation were determined by addition of MTS reagent (Promega) according to the instruction, incubation for 2 hours at 37° C. in CO2 incubator, and record the absorbance at 490 nm using an ELISA plate reader.

[3] = tested on: Class I HDAC; assay: P21 reporter gene assay in HeLa cells; type: cell-based; conditions: 24 hours
Description: HDAC subtype selectivity inhibition assay of tested compounds was carried out by several reporter gene assays experiments. Briefly, HeLa cells were seeded in 96-well plates the day before transfection to give a confluence of 50-80%. Cells were transfected with one of reporter gene plasmid containing a promoter sequence or response element upstream of a luciferase gene construct using FuGene6 transfection reagent according to the manufacturer's instruction (Roche). The promoters or response elements including p21-promoter was fused upstream to the luciferase gene reporter construct. For normalizing the transfection efficiency, a GFP expression plasmid was cotransfected. Cells were allowed to express protein for 24 hours followed by addition of individual compounds or the vehicle (DMSO). 24 hours later the cells were harvested, and the luciferase assay and GFP assay were performed using corresponding assay kits according to the manufacturer's instructions (Promega).

[4] = biological target: T1, human PDGFRβ (Homo sapiens, UniProt P09619); assay: PDGF dependent cell proliferation (MTS); type: cell-based; conditions: PDGFRβ NIH-3T3 cells, PDGF BB 50 ng/ml, 72 hours, serum-free medium; read-out: GI50 nM (PDGF ligand-dependent cell proliferation)
T1 construct: expressed in transfected cells
T1 sequence (P09619 33-1106): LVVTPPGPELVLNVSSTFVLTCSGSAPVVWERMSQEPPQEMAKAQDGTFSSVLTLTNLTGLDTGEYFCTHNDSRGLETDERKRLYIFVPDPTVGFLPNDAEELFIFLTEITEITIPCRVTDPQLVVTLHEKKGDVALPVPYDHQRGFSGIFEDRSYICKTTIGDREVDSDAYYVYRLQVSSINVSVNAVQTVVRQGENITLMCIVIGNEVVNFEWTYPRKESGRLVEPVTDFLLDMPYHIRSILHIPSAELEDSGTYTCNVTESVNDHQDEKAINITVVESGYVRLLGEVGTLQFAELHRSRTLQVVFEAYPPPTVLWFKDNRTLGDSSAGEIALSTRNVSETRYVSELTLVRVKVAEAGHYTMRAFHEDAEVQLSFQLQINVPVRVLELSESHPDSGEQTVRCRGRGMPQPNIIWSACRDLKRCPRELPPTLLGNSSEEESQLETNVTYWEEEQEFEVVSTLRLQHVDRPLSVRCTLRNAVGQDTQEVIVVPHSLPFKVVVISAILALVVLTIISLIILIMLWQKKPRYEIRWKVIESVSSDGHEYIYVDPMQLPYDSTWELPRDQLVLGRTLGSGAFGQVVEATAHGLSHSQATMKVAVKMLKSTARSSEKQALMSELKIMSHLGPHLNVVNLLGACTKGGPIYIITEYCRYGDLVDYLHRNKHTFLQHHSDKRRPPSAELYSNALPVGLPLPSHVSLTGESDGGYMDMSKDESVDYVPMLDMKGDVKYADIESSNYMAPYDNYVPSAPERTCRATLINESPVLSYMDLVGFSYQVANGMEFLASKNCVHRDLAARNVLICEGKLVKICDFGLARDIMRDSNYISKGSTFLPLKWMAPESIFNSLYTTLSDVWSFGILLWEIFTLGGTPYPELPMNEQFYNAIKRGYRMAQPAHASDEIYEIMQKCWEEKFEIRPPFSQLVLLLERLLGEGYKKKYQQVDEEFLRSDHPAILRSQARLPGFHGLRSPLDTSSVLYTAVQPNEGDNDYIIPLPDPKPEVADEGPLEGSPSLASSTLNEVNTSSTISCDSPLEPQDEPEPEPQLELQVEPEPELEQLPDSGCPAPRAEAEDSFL
Description: PDGF Dependent Cell Proliferation:
NIH-3T3 mouse fibroblasts cell line engineered to stably express human PDGFIRβ was constructed and used to evaluate PDGF dependent cell proliferation. PDGFRβ NIH-3T3 cells were plated into 96-well plates at 5,000 per well and incubated with serum-free medium for 24 hours. Compounds and PDGF BB (50 ng/ml) were added and incubated for 72 hours in serum-free medium. The effects on proliferation were determined by addition of MTS reagent (Promega) according to the instruction, incubation for 2 hours at 37° C. in CO2 incubator, and record the absorbance at 490 nm using an ELISA plate reader.

Compound	% inhibition of total HDAC enzyme activity at 30 μM [1]	GI50 [2]	Class I HDAC (P21 reporter assay) Fold Induction at 10 μM [3]	GI50 [4]
COc1cc2ncnc(Oc3ccc4c(C(=O)Nc5ccc(C)cc5N)cccc4c3)c2cc1OC [Example 18, N-(2-amino-4-methylphenyl)-6-(6,7-dimethoxyquinazolin-4-yloxy)-1-naphthamide]	17.1%	7 nM	1.1 Fold	15 nM
COc1ccc(NC(=O)c2cccc3cc(Oc4ncnc5cc(OC)c(OC)cc45)ccc23)c(N)c1 [Example 19, N-(2-amino-4-methoxyphenyl)-6-(6,7-dimethoxyquinazolin-4-yloxy)-1-naphthamide]	21.9%	23 nM	1.4 Fold	11 nM
COc1cc2ncnc(Oc3ccc4c(C(=O)Nc5ccc(Cl)cc5N)cccc4c3)c2cc1OC [Example 20, N-(2-amino-4-chlorophenyl)-6-(6,7-dimethoxyquinazolin-4-yloxy)-1-naphthamide]	21.9%	6 nM	1.5 Fold	23 nM
COc1cc2ncnc(Oc3ccc4c(C(=O)Nc5ccc(Br)cc5N)cccc4c3)c2cc1OC [Example 21, N-(2-amino-4-bromophenyl)-6-(6,7-dimethoxyquinazolin-4-yloxy)-1-naphthamide]	18.6%	5 nM	1.1 Fold	19 nM
COc1cc2ncnc(Oc3ccc4c(C(=O)Nc5ccc(C(F)(F)F)cc5N)cccc4c3)c2cc1OC [Example 22, N-(2-amino-4-trifluoromethylphenyl)-6-(6,7-dimethoxyquinazolin-4-yloxy)-1-naphthamide]	17%	3 nM	1.1 Fold	372 nM
Nc1ccccc1NC(=O)c1cccc2cc(Oc3ccnc4ccccc34)ccc12 [Example 39, N-(2-aminophenyl)-6-(quinolin-4-yloxy)-1-naphthamide]	15.9%	107 nM	1.2 Fold	32 nM
Cc1cccc2c(Oc3ccc4c(C(=O)Nc5ccccc5N)cccc4c3)ccnc12 [Example 40, N-(2-aminophenyl)-6-(8-methylquinolin-4-yloxy)-1-naphthamide]	22.2%	1000 nM	1.3 Fold	
Nc1ccccc1NC(=O)c1cccc2cc(Oc3ccnc4cc(Cl)ccc34)ccc12 [Example 41, N-(2-aminophenyl)-6-(7-chloroquinolin-4-yloxy)-1-naphthamide]	19.3%	105 nM	1.1 Fold	479 nM
Nc1ccccc1NC(=O)c1cccc2cc(Oc3ccnc4c(C(F)(F)F)cccc34)ccc12 [Example 42, N-(2-aminophenyl)-6-(8-trifluoromethylquinolin-4-yloxy)-1-naphthamide]	6.2%	1000 nM	1.3 Fold	48 nM
Nc1ccccc1NC(=O)c1ccc(CNC(=O)c2cccc3cc(Oc4ccnc5cc(Cl)ccc45)ccc23)cc1 [Example 43, N-(4-((2-aminophenyl)carbamoyl)benzyl)-6-(7-chloroquinolin-4-yloxy)-1-naphthamide]	38.7%	288 nM	6.1 Fold	
